Data from PubChem BioAssay (NCI).
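Dose response: 5 concentrations. Exposure: 48 h. Format: 96-well plates. Endpoint: linear interpolation; highest concentration if not reached. TGI is the concentration that stops growth completely.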

Key:
Assay in all cases: DTP human tumour cell line panel, 48 h
CCRF-CEM leukemia = test system: CCRF-CEM leukemia
HCT-15 colon = test system: HCT-15 colon
HOP-92 NSCLC = test system: HOP-92 NSCLC
IGROV1 ovarian = test system: IGROV1 ovarian
K-562 leukemia = test system: K-562 leukemia
LOX IMVI melanoma = test system: LOX IMVI melanoma
M14 melanoma = test system: M14 melanoma
MALME-3M melanoma = test system: MALME-3M melanoma
MDA-MB-231 breast = test system: MDA-MB-231 breast
NCI-H226 lung = test system: NCI-H226 lung
NCI-H460 lung = test system: NCI-H460 lung
OVCAR-4 ovarian = test system: OVCAR-4 ovarian
RXF 393 renal = test system: RXF 393 renal
SK-MEL-5 melanoma = test system: SK-MEL-5 melanoma
SK-OV-3 ovarian = test system: SK-OV-3 ovarian
SN12C renal = test system: SN12C renal
SW-620 colon = test system: SW-620 colon
TK-10 renal = test system: TK-10 renal
UACC-257 melanoma = test system: UACC-257 melanoma
OVCAR-5 ovarian = test system: OVCAR-5 ovarian

SMILES	TGI (CCRF-CEM leukemia)	TGI (HCT-15 colon)	TGI (HOP-92 NSCLC)	TGI (IGROV1 ovarian)	TGI (K-562 leukemia)	TGI (LOX IMVI melanoma)	TGI (M14 melanoma)	TGI (MALME-3M melanoma)	TGI (MDA-MB-231 breast)	TGI (NCI-H226 lung)	TGI (NCI-H460 lung)	TGI (OVCAR-4 ovarian)	TGI (RXF 393 renal)	TGI (SK-MEL-5 melanoma)	TGI (SK-OV-3 ovarian)	TGI (SN12C renal)	TGI (SW-620 colon)	TGI (TK-10 renal)	TGI (UACC-257 melanoma)	TGI (OVCAR-5 ovarian)
CC(=O)c1sc2c(c1OC(=O)c1ccco1)c(=O)n(-c1ccccc1)c(=S)n2-c1ccccc1	43.5 µM	41.9 µM	22 µM	54.2 µM	> 100 µM	39.3 µM	28.3 µM	37.9 µM	47.1 µM	16.1 µM	> 100 µM	95 µM	28.2 µM	18.9 µM	55.3 µM	> 100 µM	> 100 µM	92.6 µM	88.7 µM	–
CO/C(N)=C(\C#N)N=Cc1ccco1	> 100 µM	> 100 µM	> 100 µM	> 100 µM	> 100 µM	> 100 µM	> 100 µM	> 100 µM	> 100 µM	> 100 µM	–	> 100 µM	> 100 µM	> 100 µM	> 100 µM	> 100 µM	> 100 µM	> 100 µM	> 100 µM	> 100 µM
O=C(O)C1CCCN(CCc2c[nH]c3ccccc23)C1 (configuration not stated)	> 100 µM	> 100 µM	> 100 µM	> 100 µM	> 100 µM	> 100 µM	> 100 µM	> 100 µM	> 100 µM	> 100 µM	> 100 µM	> 100 µM	> 100 µM	–	> 100 µM	> 100 µM	> 100 µM	> 100 µM	> 100 µM	> 100 µM
NCCCCC(NC(=O)C(N)Cc1ccc(O)cn1)C(=O)O (configuration not stated)	> 100 µM	> 100 µM	> 100 µM	> 100 µM	> 100 µM	> 100 µM	–	> 100 µM	> 100 µM	> 100 µM	> 100 µM	> 100 µM	> 100 µM	> 100 µM	–	> 100 µM	> 100 µM	> 100 µM	> 100 µM	> 100 µM
CC(CCC(=O)O)(c1ccc(O)cc1)c1ccc(O)cc1	–	> 100 µM	> 100 µM	> 100 µM	> 100 µM	> 100 µM	> 100 µM	> 100 µM	> 100 µM	> 100 µM	> 100 µM	> 100 µM	> 100 µM	> 100 µM	–	> 100 µM	> 100 µM	> 100 µM	> 100 µM	> 100 µM
CCOC(=O)c1cc2c([nH]1)c(O)cc1c2ccn1Cc1ccccc1	39.9 µM	30.5 µM	27.7 µM	54.3 µM	25.3 µM	28.1 µM	47.5 µM	36.8 µM	49.1 µM	36.9 µM	34.7 µM	35.4 µM	21.9 µM	24.5 µM	39.5 µM	36.6 µM	40.6 µM	–	34.8 µM	41.4 µM
